# According to patent US12653797B2, “Tablet and method for manufacturing same” (AYUMI PHARMACEUTICAL CORPORATION, priority 2020, dated 2026):
# Test: Measurement of the particle diameter of the acetaminophen active pharmaceutical ingredients (dry laser diffraction)
# Assay type: physicochemical
# Conditions: dispersion air pressure 0.5 bar
# Description: There may be some differences between manufacturing lots. In addition, the volume-average particle diameter (MV) of the present acetaminophen active pharmaceutical ingredient can be in the range from 100 to 350 μm and may be in the range from 120 to 330 μm. There may be some differences between manufacturing lots. The particle size distribution in the present invention is acquired by evaluation of the volumetric distribution using dry particle diameter measurement by a laser diffraction method (Laser Micron Sizer LMS-2000e (Seishin Enterprise Co., Ltd.)). D50 is the particle diameter at the 50% accumulation of the individual volumes from the small diameter side of the particle size distribution, and is referred to as the median particle diameter. (3) Measurement of the Particle Diameter of the Acetaminophen Active Pharmaceutical Ingredients The acetaminophen active pharmaceutical ingredients were subjected to dry measurement of the particle diameter by a laser diffraction method. A Laser Micron Sizer LMS-2000e (Seishin Enterprise Co., Ltd.) was used for measurement of the particle size distribution. The measurement was carried out at a dispersion compressed air pressure of 0.5 bar.
Compound,D10 [μm],D50 (median particle diameter) [μm],D90 [μm],MV (volume-average particle diameter) [μm]
"CC(=O)Nc1ccc(O)cc1 [AA API a, acetaminophen]",73,224,404,234
"CC(=O)Nc1ccc(O)cc1 [AA API b, acetaminophen]",62,191,353,202
"CC(=O)Nc1ccc(O)cc1 [AA API c, acetaminophen]",27,147,357,173
"CC(=O)Nc1ccc(O)cc1 [AA API d, acetaminophen]",75,419,855,452
"CC(=O)Nc1ccc(O)cc1 [AA API e, acetaminophen]",5.7,26,116,46

# Next, values leading:
D10 [μm],D50 (median particle diameter) [μm],D90 [μm],MV (volume-average particle diameter) [μm],Compound
42,202,426,222,"CC(=O)Nc1ccc(O)cc1 [AA API f, acetaminophen]"
125,288,516,306,"CC(=O)Nc1ccc(O)cc1 [AA API g, acetaminophen]"
